Data reported in patent publication US9512141B2, “Pyrazine derivatives as CB2 receptor agonists” (Hoffmann-La Roche Inc., priority 2012, dated 2016).
Where two headings read alike, the source gives them in different places.

Tests used:
[1] = biological target: human CB2 receptors (Homo sapiens (Human), UniProt P34972); test: cAMP assay (functional), CHO cells expressing human CB2 receptors; assay type: cell-based
Procedure: (§1) CHO cells expressing human CB1 or CB2 receptors are seeded 17-24 hours prior to the experiment 50.000 cells per well in a black 96 well plate with flat clear bottom (Corning Costar #3904) in DMEM (Invitrogen No. 31331), 1×HT supplement, with 10% fetal calf serum and incubated at 5% CO2 and 37° C. in a humidified incubator. The growth medium was exchanged with Krebs Ringer Bicarbonate buffer with 1 mM IBMX and incubated at 30° C. for 30 min. Compounds were added to a final assay volume of 100 μl and incubated for 30 min at 30° C. Using the cAMP-Nano-TRF detection kit the assay (Roche Diagnostics) was stopped by the addition of 50 μl lysis reagent (Tris, NaCl, 1.5% Triton X100, 2.5% NP40, 10% NaN3) and 50 μl detection solutions (20 μM mAb Alexa700-cAMP 1:1, and 48 μM Ruthenium-2-AHA-cAMP) and shaken for 2 h at room temperature. The time-resolved energy transfer is measured by a TRF reader (Evotec Technologies GmbH), equipped with a ND:YAG laser as excitation source. The plate is measured twice with the excitation at 355 nm and at the emission with a delay of 100 ns and a gate of 100 ns, total exposure time 10 s at 730 (bandwidth 30 nm) or 645 nm (bandwidth 75 nm), respectively. The FRET signal is calculated as follows: FRET=T730-Alexa730-P (T645-B645) with P=Ru730-B730/Ru645-B645, where T730 is the test well measured at […], T645 is the test well measured at 645 nm, B730 and B645 are the buffer controls at 730 nm and 645 nm, respectively. cAMP content is determined from the function of a standard curve spanning from 10 μM to 0.13 nM cAMP.
(§2) EC50 values were determined using Activity Base analysis (ID Business Solution, Limited). The EC50 values for a wide range of cannabinoid agonists generated from this assay were in agreement with the values published in the scientific literature.

[2] = biological target: human CB1 receptors (Homo sapiens (Human), UniProt P21554); test: cAMP assay (functional), CHO cells expressing human CB1 receptors; assay type: cell-based
Chain of human CB1 receptors (P21554 whole entry): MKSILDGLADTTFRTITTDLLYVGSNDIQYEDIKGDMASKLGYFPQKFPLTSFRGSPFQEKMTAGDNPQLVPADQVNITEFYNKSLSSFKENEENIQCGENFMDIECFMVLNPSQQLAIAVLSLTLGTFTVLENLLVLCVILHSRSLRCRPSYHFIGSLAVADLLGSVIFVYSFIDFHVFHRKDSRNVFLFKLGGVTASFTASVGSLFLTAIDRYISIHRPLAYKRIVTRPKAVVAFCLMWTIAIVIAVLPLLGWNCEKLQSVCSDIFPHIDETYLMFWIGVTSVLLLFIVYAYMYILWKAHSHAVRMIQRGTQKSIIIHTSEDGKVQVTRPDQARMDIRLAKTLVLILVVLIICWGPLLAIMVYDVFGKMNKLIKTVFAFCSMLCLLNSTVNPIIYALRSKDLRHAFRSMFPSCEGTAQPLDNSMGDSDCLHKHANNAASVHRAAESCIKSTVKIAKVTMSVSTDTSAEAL
Procedure: as §1, §2

[3] = functional cAMP assay, CHO cells expressing human CB2, read-out: human CB2 EC50
[4] = functional cAMP assay, CHO cells expressing human CB1, read-out: human CB1 EC50

Chain of human CB2 receptors (P34972 whole entry): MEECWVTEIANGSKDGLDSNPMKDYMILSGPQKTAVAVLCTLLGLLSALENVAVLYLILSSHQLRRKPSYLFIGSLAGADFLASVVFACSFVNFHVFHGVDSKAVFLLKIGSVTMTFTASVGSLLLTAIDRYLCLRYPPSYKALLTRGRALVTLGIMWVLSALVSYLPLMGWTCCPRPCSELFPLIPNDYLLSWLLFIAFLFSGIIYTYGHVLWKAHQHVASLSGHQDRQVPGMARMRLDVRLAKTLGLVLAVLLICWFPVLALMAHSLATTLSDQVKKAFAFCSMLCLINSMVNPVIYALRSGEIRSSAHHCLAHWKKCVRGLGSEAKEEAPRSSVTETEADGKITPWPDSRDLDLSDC

Compound	EC50 [1]	EC50 [2]	EC50 [1, 3]	EC50 [2, 4]
NC(=O)C1CC2(CC2)CN1C(=O)c1cnc(N2CC(F)(F)C2)c(OCC2CC2)n1 (racemic) [Example 40, (±)-5-[6-(Cyclopropylmethoxy)-5-(3,3-difluoroazetidin-1-yl)pyrazine-2-carbonyl]-5-azaspiro[2.4]heptane-6-carboxamide]	0.039 µM	> 10 µM		
NC(=O)C1CCCCN1C(=O)c1cnc(N2CC(F)(F)C2)c(OCC2CC2)n1 (single isomer, unassigned; (-)) [Example 36, (−)-1-[6-Cyclopropylmethoxy-5-(3,3-difluoro-azetidin-1-yl)-pyrazine-2-carbonyl]-piperidine-2-carboxylic acid amide]			0.217 µM	> 10 µM
NC(=O)C1CSCCN1C(=O)c1cnc(N2CC(F)(F)C2)c(OCC2CC2)n1 (single isomer, unassigned; (-)) [Example 37, (−)-4-[6-Cyclopropylmethoxy-5-(3,3-difluoro-azetidin-1-yl)-pyrazine-2-carbonyl]-thiomorpholine-3-carboxylic acid amide]			0.308 µM	> 10 µM
CC1(C)CC(C(N)=O)N(C(=O)c2cnc(N3CC(F)(F)C3)c(OCC3CC3)n2)C1 (single isomer, unassigned; (-)) [Example 38, (−)-1-[6-Cyclopropylmethoxy-5-(3,3-difluoro-azetidin-1-yl)-pyrazine-2-carbonyl]-4,4-dimethyl-pyrrolidine-2-carboxylic acid amide]			0.0014 µM	> 10 µM
CC1(C)CC(C(N)=O)N(C(=O)c2cnc(C3CC3)c(OCC3CC3)n2)C1 (single isomer, unassigned; (-)) [Example 39, (−)-1-(5-Cyclopropyl-6-cyclopropylmethoxy-pyrazine-2-carbonyl)-4,4-dimethyl-pyrrolidine-2-carboxylic acid amide]			0.0103 µM	> 10 µM
C[C@@H]1CCCN1C(=O)c1cnc(C2CC2)c(OCC2CC2)n1 [Example 1, (5-Cyclopropyl-6-cyclopropylmethoxy-pyrazin-2-yl)-((R)-2-methyl-pyrrolidin-1-yl)-methanone]			0.0573 µM	> 10 µM
C[C@@H]1CCCN1C(=O)c1cnc(N2CC(F)(F)C2)c(OCC2CC2)n1 [Example 2, [6-Cyclopropylmethoxy-5-(3,3-difluoro-azetidin-1-yl)-pyrazin-2-yl]-((R)-2-methyl-pyrrolidin-1-yl)-methanone]			0.0049 µM	> 10 µM
COCCN(C(=O)c1cnc(N2CC(F)(F)C2)c(OCC2CC2)n1)C(C)(C)C [Example 3, 6-Cyclopropylmethoxy-5-(3,3-difluoro-azetidin-1-yl)-pyrazine-2-carboxylic acid tert-butyl-(2-methoxy-ethyl)-amide]			0.004 µM	> 10 µM
CC1(C)COCCN1C(=O)c1cnc(N2CC(F)(F)C2)c(OCC2CC2)n1 [Example 4, [6-Cyclopropylmethoxy-5-(3,3-difluoro-azetidin-1-yl)-pyrazin-2-yl]-(3,3-dimethyl-morpholin-4-yl)-methanone]			0.0043 µM	> 10 µM
C[C@H]1CCCN1C(=O)c1cnc(N2CC(F)(F)C2)c(OCC2CC2)n1 [Example 5, [6-Cyclopropylmethoxy-5-(3,3-difluoro-azetidin-1-yl)-pyrazin-2-yl]-((S)-2-methyl-pyrrolidin-1-yl)-methanone]			0.0817 µM	> 10 µM
O=C(c1cnc(N2CC(F)(F)C2)c(OCC2CC2)n1)N1CC2CC1CO2 (stereo not drawn) [Example 6, [6-Cyclopropylmethoxy-5-(3,3-difluoro-azetidin-1-yl)-pyrazin-2-yl]-2-oxa-5-aza-bicyclo[2.2.1]hept-5-yl-methanone]			0.257 µM	> 10 µM
CN(C(=O)c1cnc(N2CC(F)(F)C2)c(OCC2CC2)n1)C(C)(C)C [Example 7, 6-Cyclopropylmethoxy-5-(3,3-difluoro-azetidin-1-yl)-pyrazine-2-carboxylic acid tert-butyl-methyl-amide]			0.0032 µM	> 10 µM
O=C(c1cnc(N2CC(F)(F)C2)c(OCC2CC2)n1)N1CCC(F)(F)C1 [Example 8, [6-Cyclopropylmethoxy-5-(3,3-difluoro-azetidin-1-yl)-pyrazin-2-yl]-(3,3-difluoro-pyrrolidin-1-yl)-methanone]			0.0298 µM	> 10 µM
O=C(c1cnc(N2CC(F)(F)C2)c(OCC2CC2)n1)N1CCOCC12CC2 [Example 10, [6-Cyclopropylmethoxy-5-(3,3-difluoro-azetidin-1-yl)-pyrazin-2-yl]-(7-oxa-4-aza-spiro[2.5]oct-4-yl)-methanone]			0.015 µM	> 10 µM
CCOC(=O)CN(C(=O)c1cnc(N2CC(F)(F)C2)c(OCC2CC2)n1)C(C)(C)C [Example 11, {tert-Butyl-[6-cyclopropylmethoxy-5-(3,3-difluoro-azetidin-1-yl)-pyrazine-2-carbonyl]-amino}-acetic acid ethyl ester]			0.0068 µM	> 10 µM
COCC(C)(C)N(C)C(=O)c1cnc(N2CC(F)(F)C2)c(OCC2CC2)n1 [Example 12, 6-Cyclopropylmethoxy-5-(3,3-difluoro-azetidin-1-yl)-pyrazine-2-carboxylic acid (2-methoxy-1,1-dimethyl-ethyl)-methyl-amide]			0.0092 µM	> 10 µM
CC1(C)CN(C(=O)c2cnc(N3CC(F)(F)C3)c(OCC3CC3)n2)CCO1 [Example 13, [6-Cyclopropylmethoxy-5-(3,3-difluoro-azetidin-1-yl)-pyrazin-2-yl]-(2,2-dimethyl-morpholin-4-yl)-methanone]			0.0685 µM	> 10 µM
COCC(C)(C)N(C)C(=O)c1cnc(C2CC2)c(OCC2CC2)n1 [Example 14, 5-Cyclopropyl-6-cyclopropylmethoxy-pyrazine-2-carboxylic acid (2-methoxy-1,1-dimethyl-ethyl)-methyl-amide]			0.0146 µM	> 10 µM
COC(=O)[C@@H]1CCCN1C(=O)c1cnc(C2CC2)c(OCC2CC2)n1 [Example 16, (S)-1-(5-Cyclopropyl-6-cyclopropylmethoxy-pyrazine-2-carbonyl)-pyrrolidine-2-carboxylic acid methyl ester]			0.191 µM	> 10 µM
O=C(c1cnc(C2CC2)c(OCC2CC2)n1)N1CCOCC12CC2 [Example 17, (5-Cyclopropyl-6-cyclopropylmethoxy-pyrazin-2-yl)-(7-oxa-4-aza-spiro[2.5]oct-4-yl)-methanone]			0.14 µM	> 10 µM
NC(=O)[C@@H]1CC(F)(F)CN1C(=O)c1cnc(N2CC(F)(F)C2)c(OCC2CC2)n1 [Example 19, (S)-1-[6-Cyclopropylmethoxy-5-(3,3-difluoro-azetidin-1-yl)-pyrazine-2-carbonyl]-4,4-difluoro-pyrrolidine-2-carboxylic acid amide]			0.0057 µM	> 10 µM
O=C(c1cnc(N2CC(F)(F)C2)c(OCC2CC2)n1)N1CCN(CCO)CC1 [Example 20, [6-Cyclopropylmethoxy-5-(3,3-difluoro-azetidin-1-yl)-pyrazin-2-yl]-[4-(2-hydroxy-ethyl)-piperazin-1-yl]-methanone]			0.316 µM	> 10 µM
CC1(C)CCCN1C(=O)c1cnc(N2CC(F)(F)C2)c(OCC2CC2)n1 [Example 21, [6-Cyclopropylmethoxy-5-(3,3-difluoro-azetidin-1-yl)-pyrazin-2-yl]-(2,2-dimethyl-pyrrolidin-1-yl)-methanone]			0.0043 µM	> 10 µM
COC(=O)[C@H]1CCCN1C(=O)c1cnc(N2CC(F)(F)C2)c(OCC2CC2)n1 [Example 22, (R)-1-[6-Cyclopropylmethoxy-5-(3,3-difluoro-azetidin-1-yl)-pyrazine-2-carbonyl]-pyrrolidine-2-carboxylic acid methyl ester]			0.252 µM	> 10 µM
O=C1CN(C(=O)c2cnc(N3CC(F)(F)C3)c(OCC3CC3)n2)CCO1 [Example 23, 4-[6-Cyclopropylmethoxy-5-(3,3-difluoro-azetidin-1-yl)-pyrazine-2-carbonyl]-morpholin-2-one]			0.0184 µM	> 10 µM
CN(C)C(=S)[C@H]1CCCN1C(=O)c1cnc(N2CC(F)(F)C2)c(OCC2CC2)n1 [Example 24, (R)-1-[6-Cyclopropylmethoxy-5-(3,3-difluoro-azetidin-1-yl)-pyrazine-2-carbonyl]-pyrrolidine-2-carbothioic acid dimethylamide]			0.333 µM	> 10 µM
CC(=O)OC1(C)CCN(C(=O)c2cnc(C3CC3)c(OCC3CC3)n2)C1 (stereo not drawn) [Example 25, Acetic acid 1-(5-cyclopropyl-6-cyclopropylmethoxy-pyrazine-2-carbonyl)-3-methyl-pyrrolidin-3-yl ester]			0.11 µM	> 10 µM
